Holding throughout (assay): Kinase selectivity, scanMAX Kinase assay panel (DiscoverX), % control at 1 uM
Common to all, as to format: binding

In experiment [1] the target is T1, scanMAX Kinase assay panel (Homo sapiens, UniProt Q16539).
T1 construct: purchased DiscoverX
Particulars: p38-alpha; 1 uM; read-out: Percent Control (%). Summed up: (§1)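 Compounds were tested at 1 uM in DMSO against each enzyme in the panel. Percent control was calculated as (compound − positive control)/(negative control − positive control) × 100, and a compound was scored active on a kinase when this value fell below 35.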

For experiment [2], the target named is T2, scanMAX Kinase assay panel (Homo sapiens, UniProt Q96NX5).
T2 construct: purchased DiscoverX
Particulars: CAMK1G; 1 uM; read-out: Percent Control (%). The gist of the method:
as §1

Experiment [3] has as its target T3, scanMAX Kinase assay panel (Homo sapiens, UniProt Q14164).
T3 construct: purchased DiscoverX
T3 sequence (Q14164 1-716): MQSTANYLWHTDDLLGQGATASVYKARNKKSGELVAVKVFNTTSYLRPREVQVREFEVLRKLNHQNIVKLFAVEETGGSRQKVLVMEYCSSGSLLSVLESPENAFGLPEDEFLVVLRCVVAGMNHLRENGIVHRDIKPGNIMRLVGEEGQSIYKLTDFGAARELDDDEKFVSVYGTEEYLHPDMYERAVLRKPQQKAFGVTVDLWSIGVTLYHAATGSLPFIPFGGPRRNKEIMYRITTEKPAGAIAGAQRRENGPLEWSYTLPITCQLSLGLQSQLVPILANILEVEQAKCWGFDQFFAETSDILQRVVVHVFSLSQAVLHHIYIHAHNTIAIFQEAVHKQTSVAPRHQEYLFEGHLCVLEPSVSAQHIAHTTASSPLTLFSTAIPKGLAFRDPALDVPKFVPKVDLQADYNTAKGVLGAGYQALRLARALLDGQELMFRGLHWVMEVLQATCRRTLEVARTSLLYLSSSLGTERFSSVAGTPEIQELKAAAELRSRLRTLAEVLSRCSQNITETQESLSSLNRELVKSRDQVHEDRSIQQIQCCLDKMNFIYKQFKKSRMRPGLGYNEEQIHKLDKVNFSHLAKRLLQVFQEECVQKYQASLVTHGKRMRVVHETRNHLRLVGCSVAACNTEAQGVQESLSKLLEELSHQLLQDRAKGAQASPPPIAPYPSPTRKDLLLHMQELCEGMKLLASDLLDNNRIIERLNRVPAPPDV
Particulars: IKK-epsilon; 1 uM; read-out: Percent Control (%). The gist of the method:
as §1

Experiment [4] addresses T4, scanMAX Kinase assay panel (Homo sapiens, UniProt Q92918).
T4 construct: purchased DiscoverX
Particulars: HPK1; 1 uM; read-out: Percent Control (%). The gist of the method: as §1

In experiment [5] the target is T5, scanMAX Kinase assay panel (Homo sapiens, UniProt Q96L34).
T5 construct: purchased DiscoverX
T5 sequence (Q96L34 1-752): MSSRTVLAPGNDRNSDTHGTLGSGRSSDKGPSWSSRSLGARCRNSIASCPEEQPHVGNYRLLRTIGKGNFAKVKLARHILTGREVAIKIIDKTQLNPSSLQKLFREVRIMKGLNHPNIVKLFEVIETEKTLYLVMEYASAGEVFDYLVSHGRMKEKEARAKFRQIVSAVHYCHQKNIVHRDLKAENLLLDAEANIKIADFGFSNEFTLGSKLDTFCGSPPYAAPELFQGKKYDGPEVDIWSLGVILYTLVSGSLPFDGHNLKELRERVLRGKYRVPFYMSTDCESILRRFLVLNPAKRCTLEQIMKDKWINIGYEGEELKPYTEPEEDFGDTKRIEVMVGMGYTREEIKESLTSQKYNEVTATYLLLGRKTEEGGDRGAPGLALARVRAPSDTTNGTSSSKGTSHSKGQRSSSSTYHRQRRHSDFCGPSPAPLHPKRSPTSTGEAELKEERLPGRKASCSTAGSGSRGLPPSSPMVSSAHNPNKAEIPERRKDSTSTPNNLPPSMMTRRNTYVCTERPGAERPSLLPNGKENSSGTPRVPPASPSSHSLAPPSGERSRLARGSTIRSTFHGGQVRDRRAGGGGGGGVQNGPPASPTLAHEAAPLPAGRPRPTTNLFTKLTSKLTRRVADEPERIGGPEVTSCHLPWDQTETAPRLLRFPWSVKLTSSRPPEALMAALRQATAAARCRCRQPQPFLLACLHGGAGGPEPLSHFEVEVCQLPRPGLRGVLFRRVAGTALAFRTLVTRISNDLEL
Particulars: MARK4; 1 uM; read-out: Percent Control (%). Summed up:
as §1

In experiment [6] the target is T6, scanMAX Kinase assay panel (Homo sapiens, UniProt Q9BRS2).
T6 construct: purchased DiscoverX
T6 sequence (Q9BRS2 1-568): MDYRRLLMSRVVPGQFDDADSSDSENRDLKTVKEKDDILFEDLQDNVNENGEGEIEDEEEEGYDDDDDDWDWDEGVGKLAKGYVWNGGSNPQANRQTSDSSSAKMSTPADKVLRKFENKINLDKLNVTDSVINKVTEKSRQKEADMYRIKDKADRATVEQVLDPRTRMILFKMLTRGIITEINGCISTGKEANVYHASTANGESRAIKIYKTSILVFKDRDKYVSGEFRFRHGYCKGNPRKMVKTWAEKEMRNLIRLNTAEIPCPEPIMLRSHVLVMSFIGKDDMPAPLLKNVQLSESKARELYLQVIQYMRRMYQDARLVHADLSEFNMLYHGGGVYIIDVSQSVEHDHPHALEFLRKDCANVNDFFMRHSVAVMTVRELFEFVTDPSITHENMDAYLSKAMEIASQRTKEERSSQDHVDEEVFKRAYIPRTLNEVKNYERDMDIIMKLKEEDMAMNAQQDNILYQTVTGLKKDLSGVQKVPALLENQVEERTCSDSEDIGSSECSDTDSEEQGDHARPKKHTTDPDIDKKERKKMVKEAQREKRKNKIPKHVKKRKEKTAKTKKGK
Particulars: RIOK1; 1 uM; read-out: Percent Control (%). Summed up:
as §1

Molecules are shown by their SMILES.

Among the data in patent US10870647B2, “Imidazopyridine derivative, method for preparing same, and pharmaceutical composition containing same as active ingredient for preventing or treating cancer” (DAEGU-GYEONGBUK MEDICAL INNOVATION FOUNDATION, priority 2016, dated 2020) are remaining binding values, retold here.

T2 sequence (Q96NX5 whole entry): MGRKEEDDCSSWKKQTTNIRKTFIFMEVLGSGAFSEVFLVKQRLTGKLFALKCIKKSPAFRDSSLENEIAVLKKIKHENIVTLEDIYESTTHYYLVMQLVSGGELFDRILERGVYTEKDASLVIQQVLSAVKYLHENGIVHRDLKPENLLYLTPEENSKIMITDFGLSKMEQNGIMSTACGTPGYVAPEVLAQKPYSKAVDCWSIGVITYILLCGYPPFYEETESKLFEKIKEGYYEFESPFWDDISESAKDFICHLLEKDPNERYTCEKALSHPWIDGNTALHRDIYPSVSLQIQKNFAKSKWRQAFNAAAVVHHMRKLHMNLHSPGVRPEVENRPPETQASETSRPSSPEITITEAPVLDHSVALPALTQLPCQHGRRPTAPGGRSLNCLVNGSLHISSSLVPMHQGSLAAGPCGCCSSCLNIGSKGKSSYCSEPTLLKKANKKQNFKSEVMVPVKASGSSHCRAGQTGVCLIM
T1 sequence (Q16539 whole entry): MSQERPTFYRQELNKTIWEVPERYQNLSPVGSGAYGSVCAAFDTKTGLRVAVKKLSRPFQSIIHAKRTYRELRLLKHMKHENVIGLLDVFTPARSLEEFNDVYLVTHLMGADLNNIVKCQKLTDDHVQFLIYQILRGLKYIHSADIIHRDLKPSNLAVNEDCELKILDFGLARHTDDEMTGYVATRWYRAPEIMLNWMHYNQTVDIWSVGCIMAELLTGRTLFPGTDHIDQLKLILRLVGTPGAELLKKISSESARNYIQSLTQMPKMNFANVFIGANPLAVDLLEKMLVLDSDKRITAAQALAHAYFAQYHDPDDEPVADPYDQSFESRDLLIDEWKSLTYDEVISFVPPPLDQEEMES
T4 sequence (Q92918 whole entry): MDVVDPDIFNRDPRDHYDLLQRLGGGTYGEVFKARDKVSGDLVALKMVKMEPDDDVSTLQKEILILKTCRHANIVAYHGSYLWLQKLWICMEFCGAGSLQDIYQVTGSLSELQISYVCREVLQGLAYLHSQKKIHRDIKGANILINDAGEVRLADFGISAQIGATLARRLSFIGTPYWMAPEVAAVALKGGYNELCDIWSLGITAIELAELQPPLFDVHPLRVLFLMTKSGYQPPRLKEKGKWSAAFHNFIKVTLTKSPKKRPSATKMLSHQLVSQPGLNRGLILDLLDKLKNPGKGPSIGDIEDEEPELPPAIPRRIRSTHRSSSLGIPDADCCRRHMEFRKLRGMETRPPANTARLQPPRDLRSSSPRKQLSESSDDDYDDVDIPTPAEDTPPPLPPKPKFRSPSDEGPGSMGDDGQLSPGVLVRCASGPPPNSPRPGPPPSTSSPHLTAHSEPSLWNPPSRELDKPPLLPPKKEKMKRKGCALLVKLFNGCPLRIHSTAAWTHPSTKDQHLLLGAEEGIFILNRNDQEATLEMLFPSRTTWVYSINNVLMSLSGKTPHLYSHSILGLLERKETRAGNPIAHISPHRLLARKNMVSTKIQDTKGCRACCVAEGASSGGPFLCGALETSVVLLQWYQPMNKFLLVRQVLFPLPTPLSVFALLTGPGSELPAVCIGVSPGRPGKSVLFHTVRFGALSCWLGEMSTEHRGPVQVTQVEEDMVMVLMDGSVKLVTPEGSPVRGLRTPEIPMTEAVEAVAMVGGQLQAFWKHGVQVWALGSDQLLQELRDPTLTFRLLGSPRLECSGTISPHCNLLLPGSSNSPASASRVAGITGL

On to `Cc1ccc(C(=O)Nc2ccc(CN3CCN(C)CC3)c(C(F)(F)F)c2)cc1C#Cc1cnc2c(Nc3cnn(C)c3)cccn12` [Example 1, 4-methyl-3-((8-((1-methyl-1H-pyrazol-4-yl)amino)imidazo[1,2-a]pyridin-3-yl)ethynyl)-N-(4-((4-methylpiperazin-1-yl)methyl)-3-(trifluoromethyl)phenyl)benzamide], for which the remaining binding at 1 µM in experiment [1] was found to be 0%; in experiment [2], 71%; in experiment [3], 66%; in experiment [4] it was 1%; in experiment [5], 100%; in experiment [6] it was 77%.
Take `Cc1ccc(NC(=O)C2(C(=O)Nc3ccc(F)cc3)CC2)cc1C#Cc1cnc2c(Nc3cnn(C(C)C)c3)cccn12` [Example 78]: the remaining binding at 1 µM in experiment [1] turned out to be 14%; in experiment [2], 100%; in experiment [3], 100%; in experiment [4], 78%; in experiment [5], 97%; in experiment [6] it was 100%.
As for `Cc1cn(-c2cc(NC(=O)c3ccc(C)c(C#Cc4cnc5c(Nc6cnn(C)c6)cccn45)c3)cc(C(F)(F)F)c2)cn1` [Example 12, 4-methyl-N-(3-(4-methyl-1H-imidazol-1-yl)-5-(trifluoromethyl)phenyl)-3-((8-((1-methyl-1H-pyrazol-4-yl)amino)imidazo[1,2-a]pyridin-3-yl)ethynyl)benzamide], the remaining binding at 1 µM in experiment [1] worked out at 7%; in experiment [2], 91%; in experiment [3], 100%; in experiment [4], 5%; in experiment [5] it was 86%; in experiment [6] it was 91%.
